Test results from patent US7534894B2, “Biphenyloxy-acids” (Wyeth, priority 2003, dated 2009).

What was measured:
[1] = molecular target: T1, recombinant human plasminogen activator inhibitor-1 (PAI-1) (Homo sapiens, UniProt P05121); test: Primary Screen for the PAI-1 Inhibition (residual tPA activity, chromogenic substrate Spectrozyme-tPA); type: biochemical; conditions: 140 nM PAI-1, 70 nM tPA, pH 6.6; for inhibition at 25 µM: 25 μM test compound; for inhibition at 100 µM: 100 μM test compound
T1 construct: purchased Molecular Innovations, Royal Oak, Mich
Protocol: Test compounds are dissolved in DMSO at a final concentration of 10 mM, then diluted 101× in physiologic buffer. The inhibitory assay is initiated by the addition of the test compound (1-100 μM final concentration, maximum DMSO concentration of 0.2%) in a pH 6.6 buffer containing 140 nM recombinant human plasminogen activator inhibitor-1 (PAI-1; Molecular Innovations, Royal Oak, Mich.). Following a 1 hour incubation at room temperature, 70 nM of recombinant human tissue plasminogen activator (tPA) is added, and the combination of the test compound, PAI-1 and tPA is incubated for an additional 30 minutes. Following the second incubation, Spectrozyme-tPA (American Diagnostica, Greenwich, Conn.), a chromogenic substrate for tPA, is added and absorbance read at 405 nm at 0 and 60 minutes. Relative PAI-1 inhibition is equal to the residual tPA activity in the presence of the test compound and PAI-1. Control treatments include the complete inhibition of tPA by PAI-1 at the molar ratio employed (2:1), and the absence of any effect of the test compound on tPA alone.

[2] = molecular target: human PAI-1 (Homo sapiens, UniProt P05121); test: Antibody Assay for Determining IC50 of Inhibition of PAI-1 (active PAI-1 bound to tPA-coated plate, 33B8 antibody); type: binding; conditions: test compound incubated with human PAI-1 50 ng/ml, pH 7.5
Protocol: This assay is based upon the non-SDS dissociable interaction between tPA and active PAI-1. Assay plates are initially coated with human tPA (10 μg/ml). Test compounds of the present invention are dissolved in DMSO at 10 mM, then diluted with physiologic buffer (pH 7.5) to a final concentration of 1-50 μM. Test compounds are incubated with human PAI-1 (50 ng/ml) for 15 minutes at room temperature. The tPA-coated plate is washed with a solution of 0.05% Tween 20 and 0. 1% BSA, then the plate is blocked with a solution of 3% BSA. An aliquot of the substituted biphenyloxy acid/PAI-1 solution is then added to the tPA-coated plate, incubated at room temperature for 1 hour, and washed. Active PAI-1 bound to the plate is assessed by adding an aliquot of a 1:1000 dilution of the 33B8 monoclonal antibody against human PAI-1, and incubating the plate at room temperature for 1 hour (Molecular Innovations, Royal Oak, Mich.). The plate is again washed, and a solution of goat anti-mouse IgG-alkaline phosphatase conjugate is added at a 1:50,000 dilution in goat serum. The plate is incubated 30 minutes at room temperature, washed, and a solution of alkaline phosphatase substrate is added. The plate is incubated 45 minutes at room temperature, and color development is determined at OD405nm. The quantitation of active PAI-1 bound to tPA at varying concentrations of the test compound is used-to determine the IC50. Results are analyzed using a logarithmic best-fit equation. The assay sensitivity is 5 ng/ml of human PAI-1 as determined from a standard curve ranging from 0-100 ng/ml.

T1 sequence (P05121 24-402): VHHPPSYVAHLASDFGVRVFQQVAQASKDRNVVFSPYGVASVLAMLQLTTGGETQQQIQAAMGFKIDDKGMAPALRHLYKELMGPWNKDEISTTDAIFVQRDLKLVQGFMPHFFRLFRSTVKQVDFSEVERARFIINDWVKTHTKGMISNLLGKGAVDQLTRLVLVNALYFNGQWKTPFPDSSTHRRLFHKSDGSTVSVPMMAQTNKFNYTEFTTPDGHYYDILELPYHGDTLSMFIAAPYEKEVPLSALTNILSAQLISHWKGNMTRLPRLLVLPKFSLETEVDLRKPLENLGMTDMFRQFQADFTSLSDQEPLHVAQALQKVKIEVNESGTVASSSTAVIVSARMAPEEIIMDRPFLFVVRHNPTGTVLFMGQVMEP
Chain of human PAI-1 (P05121 24-402): as above

Row | melting point | inhibition at 25 µM [1] | inhibition at 100 µM [1] | IC50 [2] | Compound
1 | 239 °C | 41% | 81% | 46.3 µM | CN(Cc1ccc(-c2ccc(OCc3nnn[nH]3)c(Br)c2)cc1)C(=O)c1cn(C)c2ccccc12 [Compound 9, N-{[3′-bromo-4′-(1H-tetraazol-5-ylmethoxy)-1,1′-biphenyl-4-yl]methyl}-N,1-dimethyl-1H-indole-3-carboxamide]
2 | 79 to 86 °C | 55% | 96% | 20 µM | CCCCc1oc2ccccc2c1C(=O)N(C)Cc1ccc(-c2ccc(OC(Cc3ccccc3)C(=O)O)c(Br)c2)cc1 (stereo not shown) [Compound 8, 2-[(3-bromo-4′-{[[(2-butyl-1-benzofuran-3-yl)carbonyl](methyl)amino]methyl}-1,1′-biphenyl-4-yl)oxy]-3-phenylpropanoic acid]
3 | 72 to 78 °C | 64% | 100% | 18.7 µM | CCCCc1oc2ccccc2c1C(=O)N(C)Cc1ccc(-c2ccc(OCC(=O)O)c(Br)c2)cc1 [Compound 7, [(3-bromo-4′-{[[(2-butyl-1-benzofuran-3-yl)carbonyl](methyl)amino]methyl}-1,1′-biphenyl-4-yl)oxy]acetic acid]
4 | 204 to 206 °C | 47% | 88% | 37.5 µM | CCCc1c(C(=O)NCc2ccc(-c3ccc(OCC(=O)O)c(Br)c3)cc2)cnn1-c1ccccc1 [Compound 3, {[3-bromo-4′-({[(1-phenyl-5-propyl-1H-pyrazol-4-yl)carbonyl]amino}methyl)[1,1′-biphenyl]-4-yl]oxy}acetic acid]
